In patent publication US20090304692A1, “TRIAZINE COMPOUNDS AS PI3 KINASE AND MTOR INHIBITORS” (Wyeth, priority 2008, published 2009):
Like-named read-outs stand apart in the source and are kept apart here.

Tests used:
[1] = target: Human mTOR (FLAG-TOR) (Homo sapiens, UniProt P42345); test: mTOR kinase assay (DELFIA format, purified enzyme); assay type: biochemical; conditions: read-out: IC50 mTOR
[2] = target: PI3K-α (Homo sapiens, UniProt P42336); test: PI3K-alpha fluorescence polarization assay; conditions: read-out: IC50 PI3Kα
PI3K-α, sequence (P42336 whole entry, species assumed): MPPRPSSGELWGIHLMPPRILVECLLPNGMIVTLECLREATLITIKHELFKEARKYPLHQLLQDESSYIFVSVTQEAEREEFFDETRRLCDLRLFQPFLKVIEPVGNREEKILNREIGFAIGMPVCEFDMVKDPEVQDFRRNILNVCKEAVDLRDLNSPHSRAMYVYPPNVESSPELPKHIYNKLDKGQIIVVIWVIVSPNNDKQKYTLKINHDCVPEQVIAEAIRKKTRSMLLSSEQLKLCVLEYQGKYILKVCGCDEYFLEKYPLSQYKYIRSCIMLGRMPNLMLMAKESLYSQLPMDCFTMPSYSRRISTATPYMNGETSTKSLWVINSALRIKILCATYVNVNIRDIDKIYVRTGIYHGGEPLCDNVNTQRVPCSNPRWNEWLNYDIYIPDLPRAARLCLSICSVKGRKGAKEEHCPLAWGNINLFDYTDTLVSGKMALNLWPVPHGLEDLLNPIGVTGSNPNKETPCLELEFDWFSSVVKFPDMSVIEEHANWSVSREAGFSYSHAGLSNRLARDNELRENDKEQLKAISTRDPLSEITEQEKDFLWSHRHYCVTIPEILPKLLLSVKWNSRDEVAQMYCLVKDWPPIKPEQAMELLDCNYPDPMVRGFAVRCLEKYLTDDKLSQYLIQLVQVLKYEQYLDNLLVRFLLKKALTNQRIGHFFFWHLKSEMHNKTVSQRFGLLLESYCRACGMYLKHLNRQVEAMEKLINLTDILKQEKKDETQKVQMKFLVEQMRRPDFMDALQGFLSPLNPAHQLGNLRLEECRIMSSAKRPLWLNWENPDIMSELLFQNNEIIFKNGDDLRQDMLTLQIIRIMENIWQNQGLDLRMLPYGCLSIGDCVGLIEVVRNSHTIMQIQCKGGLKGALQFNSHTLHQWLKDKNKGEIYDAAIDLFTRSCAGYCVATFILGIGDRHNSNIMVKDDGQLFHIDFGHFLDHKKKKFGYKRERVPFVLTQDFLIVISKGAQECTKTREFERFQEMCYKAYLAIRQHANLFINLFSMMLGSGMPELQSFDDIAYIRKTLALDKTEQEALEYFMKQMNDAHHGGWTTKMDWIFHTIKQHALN
PI3K-α, sequence (P27986 whole entry partner, species assumed): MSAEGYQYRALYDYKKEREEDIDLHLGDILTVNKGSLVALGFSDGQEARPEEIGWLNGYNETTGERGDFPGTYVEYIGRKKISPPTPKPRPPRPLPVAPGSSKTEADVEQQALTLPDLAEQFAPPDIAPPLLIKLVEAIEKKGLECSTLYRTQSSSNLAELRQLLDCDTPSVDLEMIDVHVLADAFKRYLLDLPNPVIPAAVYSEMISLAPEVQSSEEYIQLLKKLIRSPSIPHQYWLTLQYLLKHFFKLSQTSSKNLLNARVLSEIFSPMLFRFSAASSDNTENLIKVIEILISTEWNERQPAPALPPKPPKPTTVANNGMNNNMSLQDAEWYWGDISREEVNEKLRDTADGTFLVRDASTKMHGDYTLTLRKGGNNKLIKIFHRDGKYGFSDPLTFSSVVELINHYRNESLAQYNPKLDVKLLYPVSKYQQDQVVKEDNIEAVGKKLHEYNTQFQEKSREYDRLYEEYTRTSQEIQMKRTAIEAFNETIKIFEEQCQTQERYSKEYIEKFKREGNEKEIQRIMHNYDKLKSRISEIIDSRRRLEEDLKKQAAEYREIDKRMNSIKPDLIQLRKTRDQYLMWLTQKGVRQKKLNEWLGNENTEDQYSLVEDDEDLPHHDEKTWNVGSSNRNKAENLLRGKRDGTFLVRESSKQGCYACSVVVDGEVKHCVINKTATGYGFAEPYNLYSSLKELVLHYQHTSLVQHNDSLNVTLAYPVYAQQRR

[3] = test system: human prostate PC3-mm2 tumor cell line; test: In vitro cell culture growth assay (MTS), PC3-mm2; assay type: cell-based; conditions: Homo sapiens, PC3MM2, 72 h, MTS cell growth assay, three days after drug treatment, PC3-mm2 cells; read-out: IC50 PC3-mm2
[4] = target: PI3K-γ (Homo sapiens, UniProt P48736); test: PI3K-gamma fluorescence polarization assay; conditions: read-out: IC50 PI3Kγ
PI3K-γ, sequence (P48736 whole entry, species assumed): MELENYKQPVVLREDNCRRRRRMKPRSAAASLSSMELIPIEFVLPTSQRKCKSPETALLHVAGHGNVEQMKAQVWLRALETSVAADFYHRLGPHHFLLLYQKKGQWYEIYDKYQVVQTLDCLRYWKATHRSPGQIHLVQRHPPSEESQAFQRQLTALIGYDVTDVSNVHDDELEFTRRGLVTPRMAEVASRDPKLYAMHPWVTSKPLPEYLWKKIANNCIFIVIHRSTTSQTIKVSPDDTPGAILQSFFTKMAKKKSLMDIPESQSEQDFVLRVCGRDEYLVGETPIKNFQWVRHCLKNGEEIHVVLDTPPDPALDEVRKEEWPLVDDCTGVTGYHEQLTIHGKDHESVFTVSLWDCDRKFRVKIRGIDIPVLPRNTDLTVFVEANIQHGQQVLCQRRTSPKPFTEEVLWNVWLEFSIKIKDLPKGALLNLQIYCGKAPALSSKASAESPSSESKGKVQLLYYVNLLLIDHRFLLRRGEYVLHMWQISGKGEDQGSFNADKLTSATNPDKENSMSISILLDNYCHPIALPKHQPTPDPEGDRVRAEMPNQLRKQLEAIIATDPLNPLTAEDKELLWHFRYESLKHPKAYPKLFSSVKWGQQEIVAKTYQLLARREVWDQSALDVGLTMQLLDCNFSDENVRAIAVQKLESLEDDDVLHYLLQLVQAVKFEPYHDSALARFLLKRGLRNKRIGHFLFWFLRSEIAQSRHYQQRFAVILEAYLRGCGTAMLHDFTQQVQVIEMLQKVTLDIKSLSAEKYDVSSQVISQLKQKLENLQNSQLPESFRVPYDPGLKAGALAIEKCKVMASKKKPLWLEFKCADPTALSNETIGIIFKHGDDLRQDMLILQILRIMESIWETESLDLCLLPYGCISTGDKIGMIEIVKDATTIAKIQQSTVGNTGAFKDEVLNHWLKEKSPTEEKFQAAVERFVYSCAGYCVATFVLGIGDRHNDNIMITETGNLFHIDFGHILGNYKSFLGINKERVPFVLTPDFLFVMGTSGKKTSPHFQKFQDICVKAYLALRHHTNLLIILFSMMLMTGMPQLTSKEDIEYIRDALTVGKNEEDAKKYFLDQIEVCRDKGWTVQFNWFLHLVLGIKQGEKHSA

[5] = test system: human breast MDA-MB-361 tumor cell line; test: In vitro cell culture growth assay (MTS), MDA-MB-361; assay type: cell-based; conditions: Homo sapiens, MTS cell growth assay, three days after drug treatment, MDA-MB-361 cells, read-out: IC50 MDA-MB-361

Human mTOR (FLAG-TOR), sequence (P42345 1360-2549 limits assumed): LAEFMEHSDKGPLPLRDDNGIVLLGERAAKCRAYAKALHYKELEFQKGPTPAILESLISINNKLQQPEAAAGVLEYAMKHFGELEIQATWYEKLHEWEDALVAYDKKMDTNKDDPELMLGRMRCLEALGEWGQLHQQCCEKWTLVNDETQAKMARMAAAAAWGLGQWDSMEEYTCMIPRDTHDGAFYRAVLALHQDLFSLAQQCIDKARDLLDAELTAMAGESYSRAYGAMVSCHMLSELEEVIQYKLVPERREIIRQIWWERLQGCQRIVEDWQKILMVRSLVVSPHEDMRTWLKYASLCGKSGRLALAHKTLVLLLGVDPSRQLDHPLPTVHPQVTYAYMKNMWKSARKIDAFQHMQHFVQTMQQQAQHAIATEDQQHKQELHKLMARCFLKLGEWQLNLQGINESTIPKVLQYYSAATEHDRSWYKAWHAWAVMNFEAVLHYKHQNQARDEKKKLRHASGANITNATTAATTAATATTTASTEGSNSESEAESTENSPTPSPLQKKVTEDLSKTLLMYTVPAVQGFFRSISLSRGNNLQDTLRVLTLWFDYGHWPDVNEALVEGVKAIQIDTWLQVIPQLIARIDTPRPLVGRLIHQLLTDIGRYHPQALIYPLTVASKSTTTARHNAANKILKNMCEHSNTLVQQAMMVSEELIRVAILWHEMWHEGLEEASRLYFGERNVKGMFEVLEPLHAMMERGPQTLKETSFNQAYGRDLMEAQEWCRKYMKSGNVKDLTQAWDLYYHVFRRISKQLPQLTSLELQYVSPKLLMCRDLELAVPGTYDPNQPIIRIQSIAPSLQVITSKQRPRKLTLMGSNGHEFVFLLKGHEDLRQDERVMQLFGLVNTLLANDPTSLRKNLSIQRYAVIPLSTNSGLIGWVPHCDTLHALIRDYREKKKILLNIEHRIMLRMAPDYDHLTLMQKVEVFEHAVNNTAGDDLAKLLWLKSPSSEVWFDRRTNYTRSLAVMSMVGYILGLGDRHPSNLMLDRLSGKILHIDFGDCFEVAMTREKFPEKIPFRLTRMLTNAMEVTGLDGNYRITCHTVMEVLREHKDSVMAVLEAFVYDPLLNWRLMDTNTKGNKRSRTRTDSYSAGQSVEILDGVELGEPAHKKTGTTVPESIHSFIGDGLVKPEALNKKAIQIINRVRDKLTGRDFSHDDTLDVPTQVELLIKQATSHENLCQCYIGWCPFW

IC50 [1] [nM] | IC50 [2] [nM] | IC50 [3] [nM] | IC50 [4] [nM] | IC50 ([5]; 72 h) [nM] | IC50 ([5]; MDA-MB-361, 72 h) [nM] | SMILES
1 | 13.5 | 23 | 84.5 | 5 | – | CC(C)N1CCN(C(=O)c2ccc(NC(=O)Nc3ccc(-c4nc(N5CCOC[C@H]5C)nc(N5CCOC[C@@H]5C)n4)cc3)cc2)CC1 [Example 630, 1-(4-{[4-(1-methylethyl)piperazin-1-yl]carbonyl}phenyl)-3-(4-{4-[(3R)-3-methylmorpholin-4-yl]-6-[(3S)-3-methylmorpholin-4-yl]-1,3,5-triazin-2-yl}phenyl)urea]
4 | 28 | 120 | 133 | 28 | – | CC(C)CN1CCN(C(=O)c2ccc(NC(=O)Nc3ccc(-c4nc(N5CCOC[C@@H]5C)nc(N5CCOC[C@@H]5C)n4)cc3)cc2)CC1 [Example 631, 1-(4-{4,6-bis[(3S)-3-methylmorpholin-4-yl]-1,3,5-triazin-2-yl}phenyl)-3-(4-{[4-(2-methylpropyl)piperazin-1-yl]carbonyl}phenyl)urea]
1 | 15 | 38 | 74.5 | 9 | – | CCC(C)N1CCN(C(=O)c2ccc(NC(=O)Nc3ccc(-c4nc(N5CCOC[C@@H]5C)nc(N5CCOC[C@@H]5C)n4)cc3)cc2)CC1 (stereo partly drawn) [Example 632, 1-(4-{4,6-bis[(3S)-3-methylmorpholin-4-yl]-1,3,5-triazin-2-yl}phenyl)-3-(4-{[4-(1-methylpropyl)piperazin-1-yl]carbonyl}phenyl)urea]
1 | 11.5 | 64 | 175 | 15 | – | C[C@H]1COCCN1c1nc(-c2ccc(NC(=O)Nc3ccc(C(=O)NCCN4CCN(C)CC4)cc3)cc2)nc(N2CCOC[C@@H]2C)n1 [Example 633, 4-{[(4-{4,6-bis[(3S)-3-methylmorpholin-4-yl]-1,3,5-triazin-2-yl}phenyl)carbamoyl]amino}-N-[2-(4-methylpiperazin-1-yl)ethyl]benzamide]
4 | 21.5 | 62 | 190 | – | 26 | C[C@H]1COCCN1c1nc(-c2ccc(NC(=O)Nc3ccc(C(=O)N4CCCCC4)cc3)cc2)nc(N2CCOC[C@@H]2C)n1 [Example 637, 1-(4-{4,6-bis[(3S)-3-methylmorpholin-4-yl]-1,3,5-triazin-2-yl}phenyl)-3-[4-(piperidin-1-ylcarbonyl)phenyl]urea]
2 | 16 | 44 | 114 | 9 | – | CCCN1CCN(C(=O)c2ccc(NC(=O)Nc3ccc(-c4nc(N5CCOC[C@@H]5C)nc(N5CCOC[C@@H]5C)n4)cc3)cc2)CC1 [Example 638, 1-(4-{4,6-bis[(3S)-3-methylmorpholin-4-yl]-1,3,5-triazin-2-yl}phenyl)-3-{4-[(4-propylpiperazin-1-yl)carbonyl]phenyl}urea]
1 | 14.5 | 27 | 123 | 16 | – | COCCNC(=O)c1ccc(NC(=O)Nc2ccc(-c3nc(N4CCOC[C@@H]4C)nc(N4CCOC[C@@H]4C)n3)cc2)cc1 [Example 639, 4-{[(4-{4,6-bis[(3S)-3-methylmorpholin-4-yl]-1,3,5-triazin-2-yl}phenyl)carbamoyl]amino}-N-(2-methoxyethyl)benzamide]
7 | 6.2 | 59 | 42.5 | – | 19 | CN1CCN(C(=O)c2ccc(NC(=O)Nc3ccc(-c4nc(N5CCOCC5)nc(N5CCN(C(=O)N(C)C)CC5)n4)cc3)cc2)CC1 [Example 643, N,N-dimethyl-4-(4-{4-[({4-[(4-methylpiperazin-1-yl)carbonyl]phenyl}carbamoyl)amino]phenyl}-6-morpholin-4-yl-1,3,5-triazin-2-yl)piperazine-1-carboxamide]
1 | 7.8 | 185 | 59.5 | 51 | – | CN(C)C(=O)N1CCN(c2nc(-c3ccc(NC(=O)Nc4ccc(C(=O)Nc5ccnnc5)cc4)cc3)nc(N3CCOCC3)n2)CC1 [Example 644, N,N-dimethyl-4-{4-morpholin-4-yl-6-[4-({[4-(pyridazin-4-ylcarbamoyl)phenyl]carbamoyl}amino)phenyl]-1,3,5-triazin-2-yl}piperazine-1-carboxamide]
6 | 23 | 223 | 85.5 | – | 32 | CN(C)C(=O)N1CCN(c2nc(-c3ccc(NC(=O)Nc4ccc(C(=O)O)cc4)cc3)nc(N3CCOCC3)n2)CC1 [Example 646, 4-{[(4-{4-[4-(dimethylcarbamoyl)piperazin-1-yl]-6-morpholin-4-yl-1,3,5-triazin-2-yl}phenyl)carbamoyl]amino}benzoic acid]
3 | 24.3 | 136 | 107 | 46 | – | COCCNC(=O)c1ccc(NC(=O)Nc2ccc(-c3nc(N4CCOCC4)nc(N4CCN(C(=O)N(C)C)CC4)n3)cc2)cc1 [Example 647, 4-(4-{4-[({4-[(2-methoxyethyl)carbamoyl]phenyl}carbamoyl)amino]phenyl}-6-morpholin-4-yl-1,3,5-triazin-2-yl)-N,N-dimethylpiperazine-1-carboxamide]
3 | 2 | 34 | 27 | 12 | – | CN(C)CCN(C)C(=O)c1ccc(NC(=O)Nc2ccc(-c3nc(N4CCOCC4)nc(N4CCN(C(=O)N(C)C)CC4)n3)cc2)cc1 [Example 648, 4-[4-(4-{[(4-{[2-(dimethylamino)ethyl](methyl)carbamoyl}phenyl)carbamoyl]amino}phenyl)-6-morpholin-4-yl-1,3,5-triazin-2-yl]-N,N-dimethylpiperazine-1-carboxamide]
6 | 6.4 | 37 | 38 | – | 9 | CCN1CCN(C(=O)c2ccc(NC(=O)Nc3ccc(-c4nc(N5CCOCC5)nc(N5CCN(C(=O)N(C)C)CC5)n4)cc3)cc2)CC1 [Example 649, 4-(4-{4-[({4-[(4-ethylpiperazin-1-yl)carbonyl]phenyl}carbamoyl)amino]phenyl}-6-morpholin-4-yl-1,3,5-triazin-2-yl)-N,N-dimethylpiperazine-1-carboxamide]
26 | 77 | 1100 | 540 | 569 | – | CN1CCN(Nc2nc(-c3ccc(NC(=O)Nc4ccccc4)cc3)nc(N3CCOCC3)n2)CC1 [Example 686, 1-(4-{4-[(4-methylpiperazin-1-yl)amino]-6-morpholin-4-yl-1,3,5-triazin-2-yl}phenyl)-3-phenylurea]
4.85 | 4 | 389 | 39.5 | 355 | – | CN1CCC(Oc2nc(-c3ccc(NC(=O)Nc4ccncc4)cc3)nc(N3CCOCC3)n2)CC1 [Example 687, 1-(4-{4-[(1-methylpiperidin-4-yl)oxy]-6-morpholin-4-yl-1,3,5-triazin-2-yl}phenyl)-3-pyridin-4-ylurea]
8 | 3 | 1950 | 35.5 | 1410 | – | O=C(Nc1ccncc1)Nc1ccc(-c2nc(OC3CCNCC3)nc(N3CCOCC3)n2)cc1 [Example 688, 1-{4-[4-morpholin-4-yl-6-(piperidin-4-yloxy)-1,3,5-triazin-2-yl]phenyl}-3-pyridin-4-ylurea]
39 | 217 | 85 | 2480 | 53 | – | CCOC(=O)N1CCC(Oc2nc(-c3ccc(NC(=O)Nc4ccncc4)cc3)nc(N3CCOCC3)n2)CC1 [Example 689, ethyl 4-[(4-morpholin-4-yl-6-{4-[(pyridin-4-ylcarbamoyl)amino]phenyl}-1,3,5-triazin-2-yl)oxy]piperidine-1-carboxylate]

SMILES | IC50 [1] [nM] | IC50 [2] [nM] | IC50 [3] [nM] | IC50 [4] [nM] | IC50 ([5]; 72 h) [nM] | IC50 ([5]; MDA-MB-361, 72 h) [nM]
OCc1cccc(-c2nc(N3CCOCC3)nc(N3C4CCC3COC4)n2)c1 [Example 682, {3-[4-morpholin-4-yl-6-(3-oxa-8-azabicyclo[3.2.1]oct-8-yl)-1,3,5-triazin-2-yl]phenyl}methanol] | 88.5 | 84.3 | 766 | 1280 | 1040 | –
Oc1cccc(-c2nc(N3CCOCC3)nc(N3C4CCC3COC4)n2)c1 [Example 683, 3-[4-morpholin-4-yl-6-(3-oxa-8-azabicyclo[3.2.1]oct-8-yl)-1,3,5-triazin-2-yl]phenol] | 25 | 121 | 584 | 1330 | 673 | –
Nc1nc2cc(-c3nc(N4CCOCC4)nc(N4C5CCC4COC5)n3)ccc2[nH]1 [Example 684, 5-[4-morpholin-4-yl-6-(3-oxa-8-azabicyclo[3.2.1]oct-8-yl)-1,3,5-triazin-2-yl]-1H-benzimidazol-2-amine] | 23.5 | 154 | 1020 | 2340 | 806 | –
O=C(Nc1ccccc1)Nc1ccc(-c2nc(N3CCOCC3)nc(N3C4CCC3CC(O)C4)n2)cc1 (stereo not drawn) [Example 685, 1-{4-[4-(3-hydroxy-8-azabicyclo[3.2.1]oct-8-yl)-6-morpholin-4-yl-1,3,5-triazin-2-yl]phenyl}-3-phenylurea] | 0.825 | 7 | > 10000 | 26.5 | > 10000 | –
